Experimental data as given in patent publication US20210094973A1, “HETEROCYCLIC COMPOUNDS” (Hoffmann-La Roche Inc., priority 2019, published 2021).

molecular target: T1, MAGL (Homo sapiens, UniProt Q99685); test: 2-AG assay (MAGL inhibitory activity, hydrolysis of 2-arachidonoylglycerol followed by mass spectrometry); type: biochemical; conditions: 15 min preincubation at RT, 8 μM 2-arachidonoylglycerol, 30 min at RT, arachidonic acid by MS
T1 sequence (Q99685 1-303): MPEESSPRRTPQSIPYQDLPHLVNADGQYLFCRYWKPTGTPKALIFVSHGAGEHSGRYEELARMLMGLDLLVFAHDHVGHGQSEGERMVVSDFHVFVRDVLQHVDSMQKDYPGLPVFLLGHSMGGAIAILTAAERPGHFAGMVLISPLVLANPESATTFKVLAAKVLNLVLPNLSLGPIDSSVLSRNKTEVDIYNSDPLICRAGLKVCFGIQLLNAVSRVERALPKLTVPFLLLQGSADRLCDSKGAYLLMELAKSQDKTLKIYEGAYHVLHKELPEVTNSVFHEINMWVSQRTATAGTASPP
Procedure: Compounds were profiled for MAGL inhibitory activity by determining the enzymatic activity by following the hydrolysis of the natural substrate 2-arachidonoylglycerol (2-AG) resulting in arachidonic acid, which can be followed by mass spectrometry. This assay is hereinafter abbreviated “2-AG assay”.
The 2-AG assay was carried out in 384 well assay plates (PP, Greiner Cat #784201) in a total volume of 20 μL. Compound dilutions were made in 100% DMSO (VWR Chemicals 23500.297) in a polypropylene plate in 3-fold dilution steps to give a final concentration range in the assay from 12.5 μM to […]. 0.25 μL compound dilutions (100% DMSO) were added to 9 μL MAGL in assay buffer (50 mM TRIS (GIBCO, 15567-027), 1 mM EDTA (Fluka, 03690-100 mL), 0.01% (v/v) Tween. After shaking, the plate was incubated for 15 min at RT. To start the reaction, 10 μL 2-arachidonoylglycerol in assay buffer was added. The final concentrations in the assay was […] and 8 μM 2-arachidonoylglyerol. After shaking and 30 min incubation at RT, the reaction was quenched by the addition of 40 μL of ACN containing 4 μM of d8-arachidonic acid. The amount of arachidonic acid was traced by an online SPE system (Agilent Rapidfire) coupled to a triple quadrupole mass spectrometer (Agilent 6460). A C18 SPE cartridge (G9205A) was used in an ACN/water liquid setup. The mass spectrometer was operated in negative electrospray mode following the mass transitions 303.1→259.1 for arachidonic acid and 311.1→267.0 for d8-arachidonic acid. The activity of the compounds was calculated based on the ratio of intensities [arachidonic acid/d8-arachidonic acid].

| SMILES | IC50 [nM] |
| --- | --- |
| O=C1CO[C@H]2CCN(C(=O)N3CC(OCc4ccc(OC(F)F)cc4)C3)C[C@H]2N1 [Example 40, (4aR,8aS)-6-(3-((4-(Difluoromethoxy)benzyl)oxy)azetidine-1-carbonyl)hexahydro-2H-pyrido[4,3-b][1,4]oxazin-3(4H)-one] | 46.9 |
| Cc1ccc(C(F)(F)F)cc1COC1CN(C(=O)N2CC[C@@H]3OCC(=O)N[C@@H]3C2)C1 [Example 34, (4aR,8aS)-6-(3-((2-Methyl-5-(trifluoromethyl)benzyl)oxy)azetidine-1-carbonyl)hexahydro-2H-pyrido[4,3-b][1,4]oxazin-3(4H)-one] | 8 |
| O=C1CO[C@H]2CCN(C(=O)N3CCC(c4ccnnc4C(F)(F)F)CC3)C[C@H]2N1 [Example 47, (4aR,8aS)-6-(4-(3-(Trifluoromethyl)pyridazin-4-yl)piperidine-1-carbonyl)hexahydro-2H-pyrido[4,3-b][1,4]oxazin-3(4H)-one] | 90.9 |
| O=C1CO[C@H]2CCN(C(=O)[C@H]3C[C@H](OCc4ccc(C(F)(F)F)cc4Cl)C3)C[C@H]2N1 [Example 42, (4aR,8aS)-6-(3-((2-Chloro-4-(trifluoromethyl)benzyl)oxy)cyclobutane-1-carbonyl)hexahydro-2H-pyrido[4,3-b][1,4]oxazin-3(4H)-one] | 261 |
| O=C1CO[C@H]2CCN(C(=O)N3CC(c4noc(-c5ccc(Cl)cc5Cl)n4)C3)C[C@H]2N1 [Example 18, (4aR,8aS)-6-(3-(5-(2,4-Dichlorophenyl)-1,2,4-oxadiazol-3-yl)azetidine-1-carbonyl)hexahydro-2H-pyrido[4,3-b][1,4]oxazin-3(4H)-one] | 39.2 |
| COc1cc(COC2CN(C(=O)N3CC[C@@H]4OCC(=O)N[C@@H]4C3)C2)ccc1F [Example 30, (4aR,8aS)-6-(3-((4-Fluoro-3-methoxybenzyl)oxy)azetidine-1-carbonyl)hexahydro-2H-pyrido[4,3-b][1,4]oxazin-3(4H)-one] | 77.3 |
| O=C1CO[C@H]2CCN(C(=O)N3CC(OCc4cc(Cl)cc(Cl)c4)C3)C[C@H]2N1 [Example 22, (4aR,8aS)-6-(3-((3,5-Dichlorobenzyl)oxy)azetidine-1-carbonyl)hexahydro-2H-pyrido[4,3-b][1,4]oxazin-3(4H)-one] | 13.4 |
| O=C1CO[C@H]2CCN(C(=O)N3CC(c4ccc(OC5CC(F)(F)C5)cc4)C3)C[C@H]2N1 [Example 3, (4aR,8aS)-6-[3-[4-(3,3-Difluorocyclobutoxy)phenyl]azetidine-1-carbonyl]-4,4a,5,7,8,8a-hexahydropyrido[4,3-b][1,4]oxazin-3-one] | 4.1 |
| O=C1CO[C@H]2CCN(C(=O)N3CCC(c4ccn(-c5ccc(F)cc5)n4)CC3)C[C@H]2N1 [Example 20, (4aR,8aS)-6-(4-(1-(4-Fluorophenyl)-1H-pyrazol-3-yl)piperidine-1-carbonyl)hexahydro-2H-pyrido[4,3-b][1,4]oxazin-3(4H)-one] | 147 |
| O=C1CO[C@H]2CCN(C(=O)N3CCC(OCc4ccc(C(F)(F)F)cc4)CC3)C[C@H]2N1 [Example 24, (4aR,8aS)-6-(4-((4-(Trifluoromethyl)benzyl)oxy)piperidine-1-carbonyl)hexahydro-2H-pyrido[4,3-b][1,4]oxazin-3(4H)-one] | 62.1 |
| CC1C(OCc2c(F)cccc2C(F)(F)F)CN1C(=O)N1CC[C@@H]2OCC(=O)N[C@@H]2C1 (single isomer, unassigned) [Example 27] | 18.8 |
| CC1(C)CCc2cc(C3CN(C(=O)N4CC[C@@H]5OCC(=O)N[C@@H]5C4)C3)ccc2O1 [Example 10, (4aR,8aS)-6-(3-(2,2-Dimethylchroman-6-yl)azetidine-1-carbonyl)hexahydro-2H-pyrido[4,3-b][1,4]oxazin-3(4H)-one] | 6 |
| O=C1CO[C@H]2CCN(C(=O)N3CCC(OCc4ccc(F)cc4Cl)CC3)C[C@H]2N1 [Example 25, (4aR,8aS)-6-(4-((2-Chloro-4-fluorobenzyl)oxy)piperidine-1-carbonyl)hexahydro-2H-pyrido[4,3-b][1,4]oxazin-3(4H)-one] | 72.5 |
| O=C1CO[C@H]2CCN(C(=O)N3CC(c4nsc(-c5ccc(Cl)cc5Cl)n4)C3)C[C@H]2N1 [Example 7, (4aR,8aS)-6-[3-[5-(2,4-Dichlorophenyl)-1,2,4-thiadiazol-3-yl]azetidine-1-carbonyl]-4,4a,5,7,8,8a-hexahydropyrido[4,3-b][1,4]oxazin-3-one] | 9.1 |
| CC(C)COc1ccc(C2CN(C(=O)N3CC[C@@H]4OCC(=O)N[C@@H]4C3)C2)cc1 [Example 11, (4aR,8aS)-6-(3-(4-Isobutoxyphenyl)azetidine-1-carbonyl)hexahydro-2H-pyrido[4,3-b][1,4]oxazin-3(4H)-one] | 1.5 |
| CC(Oc1ccc(C(F)(F)F)cc1Cl)C1CN(C(=O)N2CC[C@H]3OCC(=O)N[C@H]3C2)C1 (stereo partly drawn) [Example 46, (4aS,8aR)-6-(3-(1-(2-Chloro-4-(trifluoromethyl)phenoxy)ethyl)azetidine-1-carbonyl)hexahydro-2H-pyrido[4,3-b][1,4]oxazin-3(4H)-one] | 225 |
| O=C1CO[C@H]2CCN(C(=O)N3CC(c4ccc(C5CCOC5)cc4)C3)C[C@H]2N1 (single isomer, unassigned) [Example 1, (4aR,8aS)-6-[3-[4-[(3R or S)-Tetrahydrofuran-3-yl]phenyl]azetidine-1-carbonyl]-4,4a,5,7,8,8a-hexahydropyrido[4,3-b][1,4]oxazin-3-one] | 33.1 |
| O=C1CO[C@H]2CCN(C(=O)C3CC(OCc4ccc(C(F)(F)F)cc4Cl)C3)C[C@H]2N1 (stereo partly drawn) [Example 41, (4aR,8aS)-6-(3-((2-Chloro-4-(trifluoromethyl)benzyl)oxy)cyclobutane-1-carbonyl)hexahydro-2H-pyrido[4,3-b][1,4]oxazin-3(4H)-one] | 774 |
| O=C1CO[C@H]2CCN(C(=O)N3CC(c4cccc(OC(F)(F)F)c4)C3)C[C@H]2N1 [Example 19, (4aR,8aS)-6-(3-(3-(Trifluoromethoxy)phenyl)azetidine-1-carbonyl)hexahydro-2H-pyrido[4,3-b][1,4]oxazin-3(4H)-one] | 44.1 |
| O=C1CO[C@H]2CCN(C(=O)N3CC(OCc4ccc(F)cc4C(F)(F)F)C3)C[C@H]2N1 [Example 49, (4aR,8aS)-6-[3-[[4-Fluoro-2-(trifluoromethyl)phenyl]methoxy]azetidine-1-carbonyl]-4,4a,5,7,8,8a-hexahydropyrido[4,3-b][1,4]oxazin-3-one] | 34 |
| CC1C(OCc2c(F)cccc2C(F)(F)F)CN1C(=O)N1CC[C@@H]2OCC(=O)N[C@@H]2C1 (single isomer, unassigned) [Example 28] | 342 |
| O=C1CO[C@H]2CCN(C(=O)N3CC(OCc4ccc(OC(F)(F)F)cc4)C3)C[C@H]2N1 [Example 44, (4aR,8aS)-6-(3-((4-(Trifluoromethoxy)benzyl)oxy)azetidine-1-carbonyl)hexahydro-2H-pyrido[4,3-b][1,4]oxazin-3(4H)-one] | 23.6 |
| O=C1CO[C@H]2CCN(C(=O)N3CC(OCc4ccc(C(F)(F)F)cn4)C3)C[C@H]2N1 [Example 43, (4aR,8aS)-6-(3-((5-(Trifluoromethyl)pyridin-2-yl)methoxy)azetidine-1-carbonyl)hexahydro-2H-pyrido[4,3-b][1,4]oxazin-3(4H)-one] | 159 |
